Measurements as given in patent publication US6831091B2, “Salt forms of 3-(4-bromo-2,6-difluoro-benzyloxy)-5-[3-(4-pyrrolidin-1-yl-butyl)-ureido]-isothiazole-4-carboxylic acid amide and method of production” (priority 2000, dated 2004).

Legend:
[1] = Stability in air / deliquescence; assay type: physicochemical; details: can be used without deliquescence
[2] = Hygroscopicity (water uptake at stated relative humidity); assay type: physicochemical; details: for hygroscopicity relative to the mesylate salt: compared with mesylate salt; for water absorbed: 90% relative humidity
[3] = Crystallinity (freedom from amorphous material); assay type: physicochemical; details: i.e., substantially free of amorphous material
[4] = Conversion of crystal form in refluxing ethanol; assay type: physicochemical
[5] = Tendency of concentrated aqueous solution to form viscous mixtures upon standing; assay type: physicochemical
[6] = Sedative effect on dosing; assay type: in vivo; details: low to moderate dosing
[7] = assay type: physicochemical; details: for kinetic solubility relative to free base or hydrochloride: compared with free base or hydrochloride form

| Compound | stability in air [1] | Hygroscopicity ([2]; 87% relative RH) | hygroscopicity relative to the mesylate salt [2] | hygroscopic stability [2] | crystallinity [3] | other results |
| --- | --- | --- | --- | --- | --- | --- |
| 3-(4-bromo-2,6-difluoro-benzyloxy)-5-[3-(4-pyrrolidin-1-yl-butyl)-ureido]-isothiazole-4-carboxylic acid amide hemi-citrate [Example 4] | more stable in air | 0.43% | less hygroscopic than the mesylate salt | – | – | – |
| 3-(4-bromo-2,6-difluoro-benzyloxy)-5-[3-(4-pyrrolidin-1-yl-butyl)-ureido]-isothiazole-4-carboxylic acid amide hemi-succinate | – | – | – | substantially hygroscopically stable | high crystallinity | – |
| 3-(4-bromo-2,6-difluoro-benzyloxy)-5-[3-(4-pyrrolidin-1-yl-butyl)-ureido]-isothiazole-4-carboxylic acid amide hemi-succinate [Example 8] | – | – | – | – | – | Hygroscopicity ([2]; 30° C. and 90% RH, listed as Hemi-succinate crystal form A): 0.6 % w/w; Hygroscopicity ([2]; 90% relative RH): 0.6%; water absorbed ([2]; listed as Form A hemi-succinate): 0.6% |
| 3-(4-bromo-2,6-difluoro-benzyloxy)-5-[3-(4-pyrrolidin-1-yl-butyl)-ureido]-isothiazole-4-carboxylic acid amide hemi-succinate [Example 9] | – | – | – | – | – | Hygroscopicity ([2]; 30° C. and 90% RH, listed as Hemi-succinate crystal form B): 1.5 % w/w; Hygroscopicity ([2]; 90% relative RH): 1.5%; water absorbed ([2]; listed as Form B hemi-succinate): 1.5%; time for conversion of hemi-succinate form B into form A [4]: less than 24 hours |
| Cl.NC(=O)c1c(OCc2c(F)cc(Br)cc2F)nsc1NC(=O)NCCCCN1CCCC1 [Example 2, 3-(4-bromo-2,6-difluoro-benzyloxy)-5-[3-(4-pyrrolidin-1-yl-butyl)-ureido]-isothiazole-4-carboxylic acid amide hydrochloride] | – | – | – | substantially hygroscopically stable | high crystallinity | tendency for concentrated aqueous solution to form viscous mixtures upon standing [5]: low tendency; Hygroscopicity ([2]; 90% relative humidity at ambient temperature): 1 % (by weight) |
| Br.NC(=O)c1c(OCc2c(F)cc(Br)cc2F)nsc1NC(=O)NCCCCN1CCCC1 [Example 3, 3-(4-bromo-2,6-difluoro-benzyloxy)-5-[3-(4-pyrrolidin-1-yl-butyl)-ureido]-isothiazole-4-carboxylic acid amide hydrobromide] | – | 0.1% | – | substantially hygroscopically stable | high crystallinity | tendency for concentrated aqueous solution to form viscous mixtures upon standing [5]: low tendency; sedative effect [6]: mild sedative effect |
| CC(=O)O.NC(=O)c1c(OCc2c(F)cc(Br)cc2F)nsc1NC(=O)NCCCCN1CCCC1 [Example 5, 3-(4-bromo-2,6-difluoro-benzyloxy)-5-[3-(4-pyrrolidin-1-yl-butyl)-ureido]-isothiazole-4-carboxylic acid amide acetate] | – | – | – | – | high crystallinity | – |
| Cc1ccc(S(=O)(=O)O)cc1.NC(=O)c1c(OCc2c(F)cc(Br)cc2F)nsc1NC(=O)NCCCCN1CCCC1 [Example 6, 3-(4-bromo-2,6-difluoro-benzyloxy)-5-[3-(4-pyrrolidin-1-yl-butyl)-ureido]-isothiazole-4-carboxylic acid amide p-tosylate] | more stable in air | −0.9% | less hygroscopic than the mesylate salt | – | – | kinetic solubility relative to free base or hydrochloride [7]: greater kinetic solubility than the free base or hydrochloride form |
| NC(=O)c1c(OCc2c(F)cc(Br)cc2F)nsc1NC(=O)NCCCCN1CCCC1.O=C(O)C(O)C(O)C(=O)O [Example 7, 3-(4-bromo-2,6-difluoro-benzyloxy)-5-[3-(4-pyrrolidin-1-yl-butyl)-ureido]-isothiazole-4-carboxylic acid amide L-tartrate] | more stable in air | – | less hygroscopic than the mesylate salt | – | – | kinetic solubility relative to free base or hydrochloride [7]: greater kinetic solubility than the free base or hydrochloride form; Hygroscopicity ([2]; 100% RH): 0.3% |
| CS(=O)(=O)O.NC(=O)c1c(OCc2c(F)cc(Br)cc2F)nsc1NC(=O)NCCCCN1CCCC1 [Example 10, 3-(4-bromo-2,6-difluoro-benzyloxy)-5-[3-(4-pyrrolidin-1-yl-butyl)-ureido]-isothiazole-4-carboxylic acid amide mesylate] | – | – | – | – | high crystallinity | kinetic aqueous solubility [7]: rapid kinetic aqueous solubility |
